The structures appear in SMILES notation.

The data set is described as follows: HILIC, HILICON iHILIC-(P) Classic, HILIC, PEEK, 100 × 2.1 mm, 5 µm, 40 °C, 0.15 mL/min, estimated dead time 1.5 min; A: water + 20 mM ammonium carbonate + 5 µM medronic acid; B: 10% water + 90% acetonitrile + 2 mM ammonium carbonate + 0.5 µM medronic acid; gradient (min/%B) 0/95 18/55 19/20 22/20 22.5/95 24/95 26/95. As to conditions: stereoisomer not certain.
For the molecule `NCCCCC(N)C(=O)O` (centres undefined) [Lysine], the LC retention time is 18.7 min. For `NC(CCC(=O)NC(CS)C(=O)NCC(=O)O)C(=O)O` (centres undefined) [GSH] the value was 9.58 min; for `NC(N)=NCCCC(N)C(=O)O` (centres undefined) [Arginine], 18.9 min. On to `NC(=O)CCC(N)C(=O)O` (centres undefined) [Glutamine], for which the LC retention time was 10.2 min. For `O=P(O)(O)OC1OC(CO)C(O)C(O)C1O` (centres undefined) [Glucose-1-phosphate] the value was 12.3 min; for `C=C(OP(=O)(O)O)C(=O)O` [PEP], 14.6 min; for `NC(=O)c1ccc[n+](C2OC(COP(=O)(O)OP(=O)(O)OCC3OC(n4cnc5c(N)ncnc54)C(OP(=O)(O)O)C3O)C(O)C2O)c1` (centres undefined) [NADP], 14.5 min. `CC(=O)NC1C(OP(=O)(O)OP(=O)(O)OCC2OC(n3ccc(=O)[nH]c3=O)C(O)C2O)OC(CO)C(O)C1O` (centres undefined) [UDP-GlcNAc]: the LC retention time is 12 min.

As to `O=C(CO)COP(=O)(O)O` [Triose phosphate], the LC retention time was 11.4 min. Turning to `Nc1ncnc2c1ncn2C1OC(COP(=O)(O)OP(=O)(O)OP(=O)(O)O)C(O)C1O` (centres undefined) [ATP], the LC retention time is 14.6 min. On to `CC(C)(COP(=O)(O)OP(=O)(O)OCC1OC(n2cnc3c(N)ncnc32)C(O)C1OP(=O)(O)O)C(O)C(=O)NCCC(=O)NCCS` (centres undefined) [CoenzymeA], for which the LC retention time is 11.6 min.

In the case of `O=C(O)CC(C(=O)O)C(O)C(=O)O` (centres undefined) [Isocitric acid], the LC retention time was 15.9 min. In the case of `NC(=O)C1=CN(C2OC(COP(=O)(O)OP(=O)(O)OCC3OC(n4cnc5c(N)ncnc54)C(OP(=O)(O)O)C3O)C(O)C2O)C=CC1` (centres undefined) [NADPH], the LC retention time was 16.4 min. On to `O=P(O)(O)OCC1OC(O)C(O)C(O)C1O` (centres undefined) [Glucose-6-phosphate], for which the LC retention time is 13.7 min. In the case of `NC(CCC(=O)NC(CSSCC(NC(=O)CCC(N)C(=O)O)C(=O)NCC(=O)O)C(=O)NCC(=O)O)C(=O)O` (centres undefined) [GSSG] it was 15.1 min; in that of `CC(=O)SCCNC(=O)CCNC(=O)C(O)C(C)(C)COP(=O)(O)OP(=O)(O)OCC1OC(n2cnc3c(N)ncnc32)C(O)C1OP(=O)(O)O` (centres undefined) [Acetyl-CoA], 10 min. In the case of `Nc1ncnc2c1ncn2C1OC(COP(=O)(O)OP(=O)(O)O)C(O)C1O` (centres undefined) [ADP] it was 12 min; in that of `Nc1ncnc2c1ncn2C1OC(CO)C(O)C1O` (centres undefined) [Adenosine], 3.83 min.

Turning to `NC(=O)c1ccc[n+](C2OC(COP(=O)(O)OP(=O)(O)OCC3OC(n4cnc5c(N)ncnc54)C(O)C3O)C(O)C2O)c1` (centres undefined) [NAD], the LC retention time was 10.3 min. For `Nc1ncnc2c1ncn2C1OC(COP(=O)(O)O)C(O)C1O` (centres undefined) [AMP] the value was 10.4 min.

On to `O=C(CO)C(O)C(O)C(O)COP(=O)(O)O` (centres undefined) [Fructose 6-phosphate], for which the LC retention time was 12.3 min. For `CC(O)C(=O)O` (centres undefined) [Lactic Acid] the value was 2.68 min; for `O=C(O)CC(O)C(=O)O` (centres undefined) [Malic Acid], 11.9 min; for `O=P(O)(O)OCC1OC(O)C(O)C1O` (centres undefined) [Pentose-phosphate], 11.5 min. In the case of `O=C(O)CCC(=O)C(=O)O` [2-Oxoglutaric acid] it was 13 min; in that of `NC(CCC(=O)O)C(=O)O` (centres undefined) [Glutamic acid], 9.88 min. For `O=P(O)(O)OCC1OC(O)(COP(=O)(O)O)C(O)C1O` (centres undefined) [Fructose-1,6-bisphosphate] the value was 16.3 min; for `O=P(O)(O)OCC(O)CO` (centres undefined) [Glycerol-3-phosphate], 11.1 min.

`O=C(O)CCC(=O)O` [Succinic Acid]: the LC retention time is 11.2 min. As for `O=C(O)C=CC(=O)O` [Fumaric Acid], the LC retention time was 12.7 min.

Regarding `NC(=O)CC(N)C(=O)O` (centres undefined) [Asparagine], the LC retention time was 10.4 min. For `NC(CC(=O)O)C(=O)O` (centres undefined) [Aspartic Acid] the value was 10.3 min; for `O=C(O)CC(O)(CC(=O)O)C(=O)O` [Citric acid], 15.3 min; for `NC(=O)C1=CN(C2OC(COP(=O)(O)OP(=O)(O)OCC3OC(n4cnc5c(N)ncnc54)C(O)C3O)C(O)C2O)C=CC1` (centres undefined) [NADH], 9.88 min.
